Reference: patent US12016905B2, “Pharmaceutical composition for prevention or treatment of preterm birth” (KOREA UNIVERSITY RESEARCH AND BUSINESS FOUNDATION, priority 2019, dated 2024)
Entries after “also recorded” stand apart in the source; their conditions may differ.

How the values were obtained:
[1] = tested on: fibroblasts isolated from cervical cells of a mouse; experiment: Western blot of α-SMA and type I collagen in cervical fibroblasts treated with TGF-β1; assay type: cell-based
Procedure: (§1) The experiment process will be described with reference to FIG. 5. Cells were isolated from the cervixes of 4- to 6-week old C57BL/6 mice and subjected to primary cell culture in 60 mm dishes (step p0). After step […] is performed by culturing for 12 to 15 days, the number of fibroblasts was measured, and fibroblasts were seeded in a 6 well dish at a density of about 0.3×10^6 cells/dish, followed by secondary culture (step p2). After 1 day from the secondary culture, it was treated for 2 hours in a serum-free medium, and then treated with 10 ng/ml of TGF-β1 per dish to induce differentiation into myofibroblasts, and experimental group was treated with SB-431542, which is a TGF-1 inhibitor, at each concentration of 0, 2, 8 and 16
UM. Two days after drug treatment, cells were washed with 10× phosphate buffered saline (PBS; Affymetrix), and proteins were extracted with RIPA buffer. Western blot was performed to investigate the expression levels of α-SMA, a marker of myofibroblasts, and COLI, a marker of collagen.
As the primary antibodies, α-smooth muscle actin (1:1000) and type I collagen (1:500) antibody were reacted at 4° C. overnight, and as the secondary antibody, anti-mouse IgG (CellNest, USA) was added thereto and was detected after the reaction for 1 hour at room temperature.

[2] = tested on: fibroblasts isolated from cervical cells of a mouse; experiment: mRNA expression level of α-SMA in cervical fibroblasts treated with TGF-β1; assay type: cell-based; conditions: 8 μM SB-431542 with TGF-β1
Procedure: as §1

[3] = tested on: fibroblasts isolated from cervical cells of a mouse; experiment: Immunofluorescence staining for α-SMA protein in cervical fibroblasts treated with TGF-β1; assay type: cell-based; conditions: treated simultaneously with TGF-β1 and SB-431542
Procedure: as §1

cervix of C57BL/6 mice = experiment: M/C ratio (α-SMA/type I collagen, Western blot) in cervical tissue after cervical excision and 3 weeks of drug administration; assay type: in vivo, mouse
Procedure: Sexually mature female C57BL/6 mice were used for experiments in vivo. The laboratory was maintained at a constant temperature (22 to 24° C.) with a 12-hour day/night cycle. Partial cervical tissue excision was performed at each 5-week old. Specifically, each mouse was anesthetized by inhalation of 2 to 4% isoflurane, and then the cervix thereof was grasped by using forceps, and an excision was made to a depth of 1 mm using a scalpel. In order to minimize bleeding after excision, each mouse was compressed to stop bleeding. The length of the cervix was 2.5 mm, about 40% of the cervix was excised, and the average weight of the excised tissues was 7 mg.
At the same time as the cervical tissue excision, liquid fibronectin, and SB-431542 dissolved in DMSO were injected into the cervix through the vagina using a feeding needle.
Liquid into the fibronectin (plasma) was infused cervix through the vagina daily for 3 weeks at each dose of 20 mg and 0.2 mg (20 mg, diluted 10 times, expressed as FN (X10)). SB-431542 was dissolved in 5% DMSO, and infused into the cervix through the vagina daily for 3 weeks at each dosage of 20 mg and 0.2 mg (20 mg, diluted 10 times, indicated as SB-431542 (X10). After the drug treatment for 3 weeks, samples were obtained from the proximal cervix and distal cervix regions divided in the cervical tissue (see FIG. 13).
The protein extraction method for confirming the expression of α-SMA and type I collagen (Collagen I) was as follows. After an RIPA buffer (RIPA lysis buffer, 150 mM NaCl, 1% Triton X-100, 1% SD, 0.1% SDS, 50 mM Tris-13 HCl, 2 mM EDTA) and protease inhibitor cocktail (GenDEPOT, P3100-005) were mixed, 100 ul of the mixture was added to separate cervical tissue in each region and pulverized using a homogenizer. After the pulverized product was left on ice for 40 minutes, centrifugation was performed for 15 minutes using a centrifuge (13,000 rpm, 4 degrees). Only the supernatant was used after storage in a new tube. Protein quantification was carried out by a Bradford method (Protein assay dye reagent concentrate buffer, BioRad).
Western blot method for confirming the expression of α-SMA and type I collagen was as follows. The extracted protein was loaded on a 10% SDS PAGE gel at 5 μg each and transferred to a nitrocellulose membrane. After blocking with 5% skim milk, α-smooth muscle actin antibody (1:1000, NSJ Bioreagents, V2001) as the primary antibodies, and type I collagen antibody (1:500, Abcam, ab88147), GAPDH (1:1000, Santa Cruz, sc376559) were reacted at 4° ° C.overnight, and anti-mouse IgG (CellNest, USA) as a secondary antibody was added thereto and reacted for 1 hour at room temperature, and then was developed and detected by using an ECL kit (SuperSignal West Pico PLUS Chemiluminescent Substrate, Thermo Scientific).
For oral administration (PO), the drug was administered to the esophagus through the mouth using a feeding needle at the same time as the cervical tissue excision. SB-431542 was dissolved in 5% DMSO and injected in an amount of 10 mg/kg with each 100 ul for 3 weeks.
For intraperitoneal infusion (IP), the drug was administered intraperitoneally using an insulin syringe at the same time as the cervical tissue excision. SB-431542 was dissolved in 5% DMSO and infused in an amount of 10 mg/kg with each 100 ul for 3 weeks.

[4] = tested on: fibroblasts isolated from cervical cells of a mouse; experiment: Western blot of α-SMA and type I collagen in cervical fibroblasts treated with TGF-β1; assay type: cell-based; remark: listed apart in the source
[5] = intravaginal, 0.2 mg (X10) daily for 3 weeks, versus cervical excision group
[6] = intravaginal, 20 mg daily for 3 weeks, versus cervical excision group
[7] = plasma fibronectin 2 μg/cm2 per well together with TGF-β1

With `NC(=O)c1ccc(-c2nc(-c3ccc4c(c3)OCO4)c(-c3ccccn3)[nH]2)cc1` [SB-431542, 4-(5-benzol [1,3]dioxol-5-yl-4-pyrldin-2-yl-1H-imidazol-2-yl)-benzamide] the “expression of α-SMA protein” value ([1]; 8 μM SB-431542 with 10 ng/ml TGF-β1, two days after treatment) was “decreased; also recorded: significantly reduced”, the “collagen 1 expression” value ([1]; SB-431542 with TGF-β1) was “no effect” and the “mRNA expression level of α-SMA” value [2] was “no significant change”. The “fluorescence detection of α-SMA” value [3] was “reduced”, the M/C ratio (cervix of C57BL/6 mice; intraperitoneal, 10 mg/kg daily for 3 weeks) was “lower than that of the cervical excision group” and the M/C ratio (cervix of C57BL/6 mice; [5]) was “no significant change”. For the same molecule, the M/C ratio (cervix of C57BL/6 mice; [6]) was “no significant change” and the M/C ratio (cervix of C57BL/6 mice; oral administration, 10 mg/kg daily for 3 weeks) was “lower than that of the cervical excision group”.

“TGF-β1: transforming growth factor beta1, used to induce differentiation of fibroblasts into myofibroblasts” was tested, and the “collagen 1 expression” value ([1]; TGF-β1 10 ng/ml) was “no effect” and the “expression level of α-SMA” value ([1]; TGF-β1 alone, 10 ng/ml) was “increased”.

In the case of chondroitin sulfate, the “increase in α-SMA expression by TGF-β1” value ([4]; 50 μg/ml chondroitin sulfate with TGF-β1) is reported as “slightly inhibited”.

In the case of “plasma fibronectin: fibronectin bovine plasma product purchased from Sigma-Aldrich; polypeptide of SEQ ID NO: 1”, the M/C ratio (cervix of C57BL/6 mice; [5]) is reported as “decreased”, the M/C ratio (cervix of C57BL/6 mice; [6]) is reported as “decreased” and the collagen expression [4, 7] is reported as “slightly decreased”. The “expression level of α-SMA” value [4, 7] was “decreased as much as in the control group” and the “ratio of α-SMA/collagen 1” value [4, 7] was “reduced”.

With “tenascin-C: drug used for wound treatment, purchased from EMD-Millipore” the “increase in α-SMA expression by TGF-β1” value ([4]; 2 μg/ml tenascin-C with TGF-β1) was “slightly inhibited”.

B1: TGF-β3: drug used for wound treatment, purchased from Sigma-Aldrich (protein, UniProt P10600 301-412, looked up)
Transforming growth factor …: ALDTNYCFRNLEENCCVRPLYIDFRQDLGWKWVHEPKGYYANFCSGPCPYLRSADTTHSTVLGLYNTLNPEASASPCCVPQDLEPLTILYYVGRTPKVEQLSNMVVKSCKCS
modifications: Transforming growth factor beta-3
notes: drug used for wound treatment, purchased from Sigma-Aldrich
For B1, the “increase in α-SMA expression by TGF-β1” value ([4]; 10 μg/ml TGF-β3 with TGF-β1) was “slightly inhibited”.
